Where a name gives a salt, the structure may show the parent alone. Read-outs that look alike come from different tables or passages of the source. Each block holds one molecule with its values, some of them ahead of it.
Columns and labels:
[1] = set-up: method as in PMID 27414183; details: human hepatocytes; ref [42]; cited from earlier work
[2] = Tissue distribution of SH-337 in rats (LC-MS/MS); assay type: in vivo, rat
Protocol: 15 SPF male SD rats were randomly divided into 5 groups, three per group. Fasting was for 4 hours. Plasma, heart, liver, and stomach were obtained 0.25, 1, 2, 4, and 24 hours after oral administration of SH-337 (0.4 mg/mL in water) at a dose of 4 mg/kg. At designated time points, rats were anesthetized with ether, and the blood samples were collected via the abdominal aorta. The blood was immediately cooled under ice-chilled conditions and centrifuged at approximately 1500 × g at 4°C for 10 minutes to obtain the plasma. For plasma: 20 μL Std samples in duplicate, QC samples in duplicate, and rat plasma samples were mixed with 60 μL ACN containing IS (200 ng/mL of tolbutamide, 50 ng/mL of propranolol, and 500 ng/mL of Dic) in EP tubes. After the mixture was vortexed for 1 min and then centrifuged for 10 min (13000 rpm, 4°C), transfer 50 μL supernatant to a 96-well plate with 150 μL pure water, shake for 10 min, and finally analyze by LC-MS/MS. For heart and liver: tissue samples were added with 3-folds (w/v) saline in terms of the weight of samples and then homogenated. 20 μL Std samples in duplicate, QC samples in duplicate, and rat heart and liver samples were mixed with 60 μL ACN containing IS (200 ng/mL of tolbutamide, 50 ng/mL of propranolol, and 500 ng/mL of Dic) in EP tubes. After the mixture was vortexed for 1 min and then centrifuged for 10 min (13000 rpm, 4°C), transfer 50 μL supernatant to a 96-well plate with 150 μL pure water, shake for 10 min, and finally analyze by LC-MS/MS. For stomach: tissue samples were added with 3-folds (w/v) saline in terms of the weight of samples and then homogenated. 20 μL Std samples in duplicate, QC samples in duplicate, and rat stomach samples were mixed with 60 μL ACN containing IS (200 ng/mL of tolbutamide, 50 ng/mL of propranolol, and 500 ng/mL of Dic) in EP tubes. After the mixture was vortexed for 1 min and then centrifuged for 10 min (13000 rpm, 4°C), transfer 50 μL supernatant to a 96-well plate with 150 μL pure water, shake for 10 min, and finally analyze by LC-MS/MS.

[3] = molecular target: T1, rabbit gastric H+, K+-ATPase (Oryctolagus cuniculus, UniProt P27112); test: In vitro enzymatic activity assay (inorganic phosphate from ATP hydrolysis); assay type: biochemical
T1 construct: using rabbit gastric H^+, K^+-ATPase; from tissue; host or cells: rabbit stomach (gastric preparation; the method of preparation is not described)
Protocol: The in vitro enzymatic activity was calculated by measuring the inorganic phosphate produced by the hydrolysis of ATP using rabbit gastric H^+, K^+-ATPase. 0.25 μg enzyme was preincubated at 37°C for 30 min in Tris-HCl buffer (2.0 mL, 50 mM, pH 6.5) containing 5 mM MgCl2, 10 μM valinomycin, 0 or 20 mM KCl, and different concentrations of SH-337 and vonoprazan. The reaction was initiated by adding 5 μL of 5 mM ATP 2Na, and the preparation was incubated for 30 min at 37°C and halted by the addition of 100 μL of malachite green reagent (0.12% malachite green, 7.5% ammonium molybdate, and 11% tween 20 were mixed in a volume ratio of 100 : 25 : 2). H^+, K^+-ATPase activity was calculated after subtracting the enzyme activity in the absence of KCl.

[4] = Metabolite identification and profiling in rat hepatocytes; assay type: in vitro ADME; details: for Relative peak area, RHeps: SH-337, rat hepatocytes, 60 min incubation
Protocol: (§1) SH-337 was incubated with rat or human hepatocytes at a concentration of 1.0 × 10^6 cells/mL for 60 min or 120 min (rat 60 min, human 120 min) at 37°C in a CO2 incubator. The samples were precipitated with acetonitrile at 1 : 2 and further centrifuged; the supernatants were dried with a stream of N2 gas. The residues were reconstituted with 300 μL of 10% acetonitrile/H2O (0.1% TFA) and analyzed by LC-MS/MS. The assays were pursued under the conditions provided in Supplementary Tables S5–S8.

[5] = Metabolite profiling, range over rat and human liver microsomes; assay type: in vitro ADME; details: rat and human microsomes after 30 and 60 min incubation
Protocol: (§2) Liver microsomes (1 mg protein/mL) were suspended in phosphate buffer (50 mM, pH 7.4) containing MgCl2 (6 mM). […] The reactions were initiated at 37°C by the addition of 1 mM NADPH and terminated at 30 min or 60 min (30 min for rat; 60 min for human). The samples were precipitated with acetonitrile at 1 : 2 and further centrifuged; the supernatants were dried with a stream of N2 gas. The residues were reconstituted with 300 μL of 10% acetonitrile/H2O (0.1% TFA) and analyzed by LC-MS/MS. The assays were pursued under the conditions provided in Supplementary Tables S4, S6, S7, and S8.

[6] = Metabolite identification and profiling in human hepatocytes; assay type: in vitro ADME
Protocol: as §1

[7] = Metabolite profiling, range over rat and human hepatocytes; assay type: in vitro ADME; details: rat and human hepatocytes after 60 and 120 min incubation
Protocol: as §1

[8] = Metabolite identification and profiling in human liver microsomes; assay type: in vitro ADME
Protocol: as §2

[9] = Metabolite identification and profiling in rat liver microsomes; assay type: in vitro ADME
Protocol: as §2

[10] = cited from earlier work
[11] = log D7.4 measurement (1-octanol/PBS pH 7.4); assay type: physicochemical; details: 1-octanol/PBS, pH 7.4, pH 7.4
Protocol: (§3) Procedure for pKa and log D7.4 measurements. The pKa was determined using pH-metric Method from DMSO Stock Solution. Procedure for Log D determinations: 15 µL of stock solutions of test compounds and control compound was placed in order into their proper 96-well rack. 500 µL of PBS saturated 1-octanol was added into each vial of the cap-less Log D plate followed by the addition of 500 µL of 1-octanol saturated PBS (pH 7.4). One stir stick was added to each vial and a molded PTFE/Silicone plug was used to seal each vial. Then the Log D plate was transferred to the Eppendorf Thermomixer Comfort plate shaker and shaken at 25°C at 1,100 RPM for 1 hour. After completion of 1 hour, plugs were removed and the stir sticks were removed using a big magnet. The samples were then centrifuged at 25°C at 20,000 g for 20 minutes to separate the phases, and pipette and syringe were used to remove the upper (1-octanol) and lower (buffer) phases to the empty tubes, respectively. Aliquots of 5 µL were taken from upper phases followed by addition of 495 µL of a mixture of H2O and acetonitrile (1:1 in v/v). Vortex for 1 minute, and then aliquots of 50 µL were taken from the diluent followed by addition of 450 µL of a mixture of H2O and acetonitrile (1:1 in v/v). And aliquots of 50 µL were taken from lower phases followed by addition of 450 µL of a mixture of H2O and acetonitrile (1:1 in v/v). 200 μL of diluent was transferred to a new 96-well plate for LC-MS/MS analysis. The dilution factor was changed according to the Log D value and the LC-MS signal response. The concentrations of test compound and control compound in 1-octanol/buffer solution were evaluated by LC-MS/MS. The Log D values of the test compounds and control compound were calculated as follows: […]

[12] = pKa measurement (pH-metric method); assay type: physicochemical; details: read-out: pKa
Protocol: as §3

[13] = rats, i.g. 2 mg/kg vonoprazan, ref [43]

T1 sequence (P27112 whole entry): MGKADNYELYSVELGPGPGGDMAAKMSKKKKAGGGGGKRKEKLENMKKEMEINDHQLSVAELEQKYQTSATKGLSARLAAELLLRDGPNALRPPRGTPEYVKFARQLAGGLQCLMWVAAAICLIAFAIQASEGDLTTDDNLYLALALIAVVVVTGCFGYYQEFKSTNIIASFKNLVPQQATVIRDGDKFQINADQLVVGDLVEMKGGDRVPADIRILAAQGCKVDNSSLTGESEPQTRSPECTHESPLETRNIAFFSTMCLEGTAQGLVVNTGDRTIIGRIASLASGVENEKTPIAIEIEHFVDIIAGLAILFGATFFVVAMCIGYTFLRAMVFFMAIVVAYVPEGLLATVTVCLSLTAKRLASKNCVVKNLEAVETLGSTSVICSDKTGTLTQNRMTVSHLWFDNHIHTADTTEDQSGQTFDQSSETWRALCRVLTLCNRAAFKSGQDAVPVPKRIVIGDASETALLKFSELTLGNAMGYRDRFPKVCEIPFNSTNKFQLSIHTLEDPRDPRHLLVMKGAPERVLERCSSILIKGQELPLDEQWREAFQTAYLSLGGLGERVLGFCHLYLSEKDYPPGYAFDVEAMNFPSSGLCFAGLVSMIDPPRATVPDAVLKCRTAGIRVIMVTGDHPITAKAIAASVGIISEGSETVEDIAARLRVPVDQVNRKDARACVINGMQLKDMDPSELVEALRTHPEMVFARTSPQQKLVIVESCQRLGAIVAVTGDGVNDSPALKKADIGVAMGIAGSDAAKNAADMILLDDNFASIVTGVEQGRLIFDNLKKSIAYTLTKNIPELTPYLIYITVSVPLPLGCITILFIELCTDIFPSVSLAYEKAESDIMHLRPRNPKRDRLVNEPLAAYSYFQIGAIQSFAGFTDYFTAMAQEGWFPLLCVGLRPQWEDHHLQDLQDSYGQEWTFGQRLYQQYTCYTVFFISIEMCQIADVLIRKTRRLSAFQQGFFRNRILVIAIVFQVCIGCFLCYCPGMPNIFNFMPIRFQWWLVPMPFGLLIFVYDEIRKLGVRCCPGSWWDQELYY
T1 sequence (P18597 whole entry partner): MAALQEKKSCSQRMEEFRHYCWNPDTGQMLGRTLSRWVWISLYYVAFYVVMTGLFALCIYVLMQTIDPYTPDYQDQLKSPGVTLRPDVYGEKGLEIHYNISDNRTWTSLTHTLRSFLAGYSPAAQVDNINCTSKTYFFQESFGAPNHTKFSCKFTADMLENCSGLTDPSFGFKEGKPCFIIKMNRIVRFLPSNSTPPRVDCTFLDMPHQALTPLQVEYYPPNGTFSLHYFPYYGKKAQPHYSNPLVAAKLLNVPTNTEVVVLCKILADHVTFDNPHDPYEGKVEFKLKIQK

SMILES: C/[N+]([O-])=C/c1cc(-c2ccccc2F)n(S(=O)(=O)c2cccnc2)c1 [M-III]
share in the in vitro metabolic profile of vonoprazan [1]: 4.1%

SMILES: O=C(O)c1c[nH]c(-c2ccccc2F)c1 [M-II]
share in the in vitro metabolic profile of vonoprazan [1]: 0.5%

SMILES: CNCc1cc(-c2ccc(O)cc2F)n(S(=O)(=O)c2cccnc2)c1.Cl.Cl [M-IV, 3-fluoro-4-(4-((methylamino)methyl)-1-(pyridin-3-ylsulfonyl)-1H-pyrrol-2-yl)phenol dihydrochloride]
AUC0–24 in the liver ([2]; after oral dosing of 4.0 mg/kg SH-337): 3410 ng·h/g
AUC(0-t) ([2]; male, SD, rat, plasma, po, rats, i.g. 4 mg/kg SH-337, read-out: AUC0–24, Plasma): 20.3 ng·h/mL
AUC0–24, Liver ([2]; rats, i.g. 4 mg/kg SH-337): 3411.2 ng equiv. h/mL or g
AUC0–24, Stomach ([2]; rats, i.g. 4 mg/kg SH-337): 94.1 ng equiv. h/mL or g
IC50 [3]: 112 nM
Relative peak area, RHeps [4]: 40.3%
Percentage of all the metabolites except SH-337, RHeps ([4]; rat hepatocytes, 60 min): 56.1%
Percentage of all SH-337 metabolites in microsomes [5]: 89.4-90.2%
Relative peak area, Hheps ([6]; SH-337, human hepatocytes, 120 min incubation): 11.6%
Percentage of all the metabolites except SH-337, Hheps ([6]; human hepatocytes, 120 min): 49.4%
Percentage of all SH-337 metabolites in hepatocytes [7]: 49.4–56.1%
Percentage of all the metabolites except SH-337, HLMs ([8]; 60 min): 89.4%
Relative peak area, HLMs ([8]; SH-337 10 µM, 60 min incubation): 27.8%
Percentage of all the metabolites except SH-337, RLMs ([9]; 30 min): 90.2%
Relative peak area, RLMs ([9]; SH-337 10 µM, 30 min incubation): 49%

SMILES: CN(Cc1cc(-c2ccc(O)cc2F)n(S(=O)(=O)c2cccnc2)c1)S(=O)(=O)O [M-IV-Sul]
share in the in vitro metabolic profile of vonoprazan [1]: 28%

SMILES: O=C(O)c1cc(-c2ccccc2F)n(S(=O)(=O)c2cccnc2)c1 [M-I]
share in the in vitro metabolic profile of vonoprazan [1]: 18%
AUC0–24 in the liver ([10]; after oral dosing of 2.0 mg/kg vonoprazan, ref [43]): 18400 ng·h/g
fold higher levels compared with those of vonoprazan ([10]; plasma, liver and kidney, rat model, ref [44]): 4.3- to 58 fold
AUC0–24, Liver [10, 13]: 18404.0 ng equiv. h/mL or g
AUC0–24, Plasma [10, 13]: 4392.0 ng equiv. h/mL or g
AUC0–24, Stomach [10, 13]: 918.0 ng equiv. h/mL or g

SMILES: NCc1cc(-c2ccccc2F)n(S(=O)(=O)c2cccnc2)c1 [N-demethylated vonoprazan]
share in the in vitro metabolic profile of vonoprazan [1]: 30%

logD at 1 h [11]: 0.5
IC50 [3]: 57.8 nM
pKa [12]: 9.26
SMILES: CNCc1cc(-c2ccc(OCc3cnn(C)c3)cc2F)n(S(=O)(=O)c2cccnc2)c1 [S1, 1-(5-(2-fluoro-4-((1-methyl-1H-pyrazol-4-yl)methoxy)phenyl)-1-(pyridin-3-ylsulfonyl)-1H-pyrrol-3-yl)-N-methylmethanamine fumarate]

logD at 1 h [11]: 0.91
IC50 [3]: 129 nM
pKa [12]: 9.13
SMILES: CNCc1cc(-c2ccc(OCC3COC3)cc2F)n(S(=O)(=O)c2cccnc2)c1 [S2, 1-(5-(2-fluoro-4-(oxetan-3-ylmethoxy)phenyl)-1-(pyridin-3-ylsulfonyl)-1H-pyrrol-3-yl)-N-methylmethanamine dihydrochloride]

SMILES: CN(Cc1cc(-c2ccc(OCC3CC3)cc2F)n(S(=O)(=O)c2cccnc2)c1)S(=O)(=O)O [Sulfated SH-337]
Relative peak area, RHeps [4]: 0.1%
Percentage of all SH-337 metabolites in microsomes [5]: 0%
Percentage of all SH-337 metabolites in hepatocytes [7]: 0.13%
